One assay concerns M. tuberculosis H37Rv. Nature of the assay: Antitubercular activity, Microplate Alamar Blue test (MABA). It counts as cell-based. The following applies: Mycobacterium tuberculosis.
In assay [1] the test system is S. aureus (Gram-positive). Kind of assay: Antibacterial activity, broth microdilution method. The format is cell-based. The conditions noted are these: Staphylococcus aureus, read-out: S. aureus (Gram +ve) MIC.
The test system of another assay is E. coli (Gram-negative). Kind of assay: Antibacterial activity, broth microdilution method. It counts as cell-based. The conditions noted are these: Escherichia coli, read-out: E. coli (Gram–ve) MIC.
Another assay concerns the target MtDHFR (Mycobacterium tuberculosis, UniProt P9WNX1). Nature of the assay: biochemical. It counts as biochemical. The conditions noted are these: for MtDHFR inhibition compared with trimethoprim: in words.
For a further assay, the target named is InhA (Mycobacterium tuberculosis, UniProt P9WGR1). Nature of the assay: Enoyl ACP reductase (InhA) inhibition. It counts as biochemical.
Chain of InhA (P9WGR1 whole entry, looked up): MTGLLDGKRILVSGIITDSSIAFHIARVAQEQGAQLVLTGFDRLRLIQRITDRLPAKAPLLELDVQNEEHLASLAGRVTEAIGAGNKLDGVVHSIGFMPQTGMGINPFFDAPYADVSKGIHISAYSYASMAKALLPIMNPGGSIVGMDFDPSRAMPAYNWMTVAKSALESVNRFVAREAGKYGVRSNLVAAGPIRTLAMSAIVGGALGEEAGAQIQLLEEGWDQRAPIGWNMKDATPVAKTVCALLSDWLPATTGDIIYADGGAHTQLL
Assay [2] deals with Mammalian Vero cell-lines. Nature of the assay: MTT-based cytotoxicity activity. The conditions noted are these: Chlorocebus sabaeus, means ± SEM of three independent experiments, read-out: IC50 MV cell-lines.
Assay [3] has as its system A549 (lung adenocarcinoma) cell-lines. Nature of the assay: MTT-based cytotoxicity activity. It counts as cell-based. The following applies: Homo sapiens, means ± SEM of three independent experiments.

The source of these data is article PMC11090339, “Synthesis, molecular docking study and biological evaluation of new pyrrole scaffolds as potential antitubercular agents for dual targeting of enoyl ACP reductase and dihydrofolate reductase” (PLOS ONE, 2024).

Values after ≈ are worked out from the molar mass of the structure shown.

Chain of MtDHFR (P9WNX1 whole entry): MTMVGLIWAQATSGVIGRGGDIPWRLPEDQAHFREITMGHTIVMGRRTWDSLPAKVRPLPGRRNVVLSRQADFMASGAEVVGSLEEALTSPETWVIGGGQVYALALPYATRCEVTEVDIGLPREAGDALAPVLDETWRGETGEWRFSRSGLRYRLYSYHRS

Regarding `Cc1ccc(OCC(=O)NNC(=O)c2ccc(-n3cccc3)cc2)cc1` [Compound 3b, 4-(1H-pyrrol-1-yl)-N’-(2-(p-tolyloxy)acetyl)benzohydrazide], the MIC worked out at 12.5 µg/mL (≈ 35.8 µM) against M. tuberculosis H37Rv, 100 µg/mL (≈ 286 µM) in assay [1] and 6.25 µg/mL (≈ 17.9 µM) with E. coli (Gram-negative).
The corresponding values for `Cc1cccc(OCC(=O)NNC(=O)c2ccc(-n3cccc3)cc2)c1` [Compound 3e, 4-(1H-pyrrol-1-yl)-N’-(2-(m-tolyloxy)acetyl)benzohydrazide] are 6.25 µg/mL (≈ 17.9 µM), 100 µg/mL (≈ 286 µM) and 12.5 µg/mL (≈ 35.8 µM).
Turning to `O=C(COc1ccc(Cl)cc1)NNC(=O)c1ccc(-n2cccc2)cc1` [Compound 3f, N’-(2-(4-chlorophenoxy)acetyl)-4-(1H-pyrrol-1-yl)benzohydrazide], the values for the minimal inhibitory concentration (MIC) (in the assay on M. tuberculosis H37Rv; in assay [1]; with E. coli (Gram-negative)) were 6.25 µg/mL (≈ 16.9 µM), 100 µg/mL (≈ 270 µM) and 12.5 µg/mL (≈ 33.8 µM), respectively. At MtDHFR, this molecule came in with an IC50 of 122 µM.
In the case of `O=C(COc1cc(O)cc(O)c1)NNC(=O)c1ccc(-n2cccc2)cc1` [Compound 3g, N’-(2-(3,5-dihydroxyphenoxy)acetyl)-4-(1H-pyrrol-1-yl) benzohydrazide], the figures for the MIC (in the assay on M. tuberculosis H37Rv; in assay [1]; in the assay on E. coli (Gram-negative)) were 3.12 µg/mL (≈ 8.49 µM), 100 µg/mL (≈ 272 µM) and 1.6 µg/mL (≈ 4.36 µM), respectively. For the same molecule, the IC50 amounted to 20 µM against MtDHFR, 216 ± 0.5 µM in assay [2] and 216 ± 0.5 µM in assay [3]. Moreover, at MtDHFR, the “MtDHFR inhibition compared with trimethoprim” value was “greater inhibition characteristics than trimethoprim”. The same molecule returned an inhibition at 50 µM against InhA of 63%.
On to `Cc1ccc(C)n1-c1ccc(C(=O)NNC(=O)COc2cc(O)cc(O)c2)cc1` [Compound 5g, N’-(2-(3,5-dihydroxyphenoxy)acetyl)-4-(2,5-dimethyl-1H-pyrrol-1-yl) benzohydrazide], for which the minimal inhibitory concentration (MIC) with M. tuberculosis H37Rv was found to be 3.12 µg/mL (≈ 7.89 µM); in assay [1], 100 µg/mL (≈ 253 µM); with E. coli (Gram-negative), 3.12 µg/mL (≈ 7.89 µM).
In the case of `Cc1ccc(OCC(=O)NNC(=O)c2ccc(-n3c(C)ccc3C)cc2)c(C)c1` [Compound 5d, 4-(2,5-dimethyl-1H-pyrrol-1-yl)-N’-(2-(2,4-dimethylphenoxy)acetyl) benzohydrazide], the results for the minimum inhibitory concentration (MIC) (against M. tuberculosis H37Rv; in assay [1]; with E. coli (Gram-negative)) were 1.6 µg/mL (≈ 4.09 µM), 100 µg/mL (≈ 255 µM) and 3.12 µg/mL (≈ 7.97 µM), respectively. Also, the values for the concentration for half-maximal inhibition (IC50) (against MtDHFR; in assay [2]; in assay [3]) were 56 µM, 226 ± 0.5 µM and 222 ± 0.5 µM, respectively. The “MtDHFR inhibition compared with trimethoprim” value at MtDHFR is on record as “greater inhibition characteristics than trimethoprim”. On InhA, the inhibition at 50 µM stood at 62%.
For the molecule `Cc1ccc(C)n1-c1ccc(C(=O)NNC(=O)COc2ccccc2Cl)cc1` [Compound 5j, N’-(2-(2-chlorophenoxy)acetyl)-4-(2,5-dimethyl-1H-pyrrol-1-yl) ben zohydrazide], the minimum inhibitory concentration (MIC) turned out to be 3.12 µg/mL (≈ 7.84 µM) against M. tuberculosis H37Rv, 100 µg/mL (≈ 251 µM) in assay [1] and 6.25 µg/mL (≈ 15.7 µM) in the assay with E. coli (Gram-negative).
The molecule `NC(=O)c1cnccn1` [Pyrazinamide, reference compound] gave a minimal inhibitory concentration (MIC) against M. tuberculosis H37Rv of 3.12 µg/mL (≈ 25.3 µM).
With `NNC(=O)c1ccncc1` [INH, Isoniazid, reference compound], the 50% inhibitory concentration (IC50) in assay [2] and in assay [3] was above 450 µM throughout.
Take `Cc1ccc(C)n1-c1ccc(C(=O)NNC(=O)COc2ccccc2)cc1` [Compound 5a, 4-(2,5-dimethyl-1H-pyrrol-1-yl)-N’-(2-phenoxyacetyl) benzohydrazide]: the minimal inhibitory concentration (MIC) against M. tuberculosis H37Rv came out at 6.25 µg/mL (≈ 17.2 µM); in assay [1] it was 100 µg/mL (≈ 275 µM); in the assay with E. coli (Gram-negative) it was 6.25 µg/mL (≈ 17.2 µM). Also, the half-inhibitory concentration (IC50) at MtDHFR worked out at 98 µM. At InhA, this molecule showed an inhibition at 50 µM of 26%.
As for `O=C(COc1cccc(O)c1)NNC(=O)c1ccc(-n2cccc2)cc1` [Compound 3i, N’-(2-(3-hydroxyphenoxy)acetyl)-4-(1H-pyrrol-1-yl)benzohydrazide], the MIC in the assay on M. tuberculosis H37Rv is 12.5 µg/mL (≈ 35.6 µM); in assay [1], 100 µg/mL (≈ 285 µM); with E. coli (Gram-negative), 12.5 µg/mL (≈ 35.6 µM).
On to `Cc1ccc(OCC(=O)NNC(=O)c2ccc(-n3cccc3)cc2)c(C)c1` [Compound 3d, N’-(2-(2,4-dimethylphenoxy)acetyl)-4-(1H-pyrrol-1yl)benzohydrazide], for which the MIC was 3.12 µg/mL (≈ 8.59 µM) in the assay on M. tuberculosis H37Rv, 100 µg/mL (≈ 275 µM) in assay [1] and 1.6 µg/mL (≈ 4.4 µM) in the assay on E. coli (Gram-negative). In addition, the IC50 at MtDHFR is 32 µM; in assay [2], 216 ± 0.4 µM; in assay [3], 212 ± 0.4 µM. In addition, the “MtDHFR inhibition compared with trimethoprim” value at MtDHFR is reported as “greater inhibition characteristics than trimethoprim”. Besides, at InhA, at 50 µM the inhibition was 48%.
Regarding `Cc1ccc(OCC(=O)NNC(=O)c2ccc(-n3c(C)ccc3C)cc2)cc1` [Compound 5b, 4-(2,5-dimethyl-1H-pyrrol-1-yl)-N’-(2-(p-tolyloxy)acetyl) benzohydrazide], the minimum inhibitory concentration (MIC) in the assay with M. tuberculosis H37Rv stood at 12.5 µg/mL (≈ 33.1 µM); in assay [1], 100 µg/mL (≈ 265 µM); in the assay on E. coli (Gram-negative) it was 12.5 µg/mL (≈ 33.1 µM).
With `Cc1cc(C)cc(OCC(=O)NNC(=O)c2ccc(-n3c(C)ccc3C)cc2)c1` [Compound 5h, 4-(2,5-dimethyl-1H-pyrrol-1-yl)-N’-(2-(3,5-dimethylphenoxy)acetyl) benzohydrazide], the MIC was 3.12 µg/mL (≈ 7.97 µM) in the assay on M. tuberculosis H37Rv, 100 µg/mL (≈ 255 µM) in assay [1] and 3.12 µg/mL (≈ 7.97 µM) in the assay with E. coli (Gram-negative).
As to `Cc1cccc(OCC(=O)NNC(=O)c2ccc(-n3c(C)ccc3C)cc2)c1` [Compound 5e, 4-(2,5-dimethyl-1H-pyrrol-1-yl)-N’-(2-(m-tolyloxy)acetyl) benzohy drazide], the MIC turned out to be 1.6 µg/mL (≈ 4.24 µM) with M. tuberculosis H37Rv, 100 µg/mL (≈ 265 µM) in assay [1] and 3.12 µg/mL (≈ 8.27 µM) in the assay on E. coli (Gram-negative). Also, the 50% inhibitory concentration (IC50) against MtDHFR stood at 62 µM; in assay [2], 220 ± 0.2 µM; in assay [3], 219 ± 0.3 µM. Moreover, the “MtDHFR inhibition compared with trimethoprim” value on MtDHFR is listed as “greater inhibition characteristics than trimethoprim”. At InhA, this molecule had an inhibition at 50 µM of 66%.
On to `Cc1ccc(C)n1-c1ccc(C(=O)NNC(=O)COc2ccc(Cl)cc2)cc1` [Compound 5f, N’-(2-(4-chlorophenoxy)acetyl)-4-(2,5-dimethyl-1H-pyrrol-1-yl) ben zohydrazide], for which the MIC was found to be 3.12 µg/mL (≈ 7.84 µM) against M. tuberculosis H37Rv, 100 µg/mL (≈ 251 µM) in assay [1] and 6.25 µg/mL (≈ 15.7 µM) in the assay on E. coli (Gram-negative).
Regarding `[H]/N=C(/N)N[C@H]1[C@H](O)[C@@H](O)[C@H](O[C@@H]2O[C@@H](C)[C@](O)(C=O)[C@H]2O[C@@H]2O[C@@H](CO)[C@H](O)[C@@H](O)[C@@H]2NC)[C@@H](N/C(N)=N\[H])[C@@H]1O` [Streptomycin, reference compound], the MIC in the assay on M. tuberculosis H37Rv came to 6.25 µg/mL (≈ 10.7 µM).
For `Cc1ccc(C)n1-c1ccc(C(=O)NNC(=O)COc2ccccc2O)cc1` [Compound 5c, 4-(2,5-dimethyl-1H-pyrrol-1-yl)-N’-(2-(2-hydroxyphenoxy)acetyl) benzohydrazide], the minimal inhibitory concentration (MIC) worked out at 12.5 µg/mL (≈ 32.9 µM) with M. tuberculosis H37Rv, 100 µg/mL (≈ 264 µM) in assay [1] and 12.5 µg/mL (≈ 32.9 µM) in the assay with E. coli (Gram-negative).
`Cc1ccc(C)n1-c1ccc(C(=O)NNC(=O)COc2cccc(O)c2)cc1` [Compound 5i, 4-(2,5-dimethyl-1H-pyrrol-1-yl)-N’-(2-(3-hydroxyphenoxy)acetyl) benzohydrazide]: the results for the MIC (in the assay on M. tuberculosis H37Rv; in assay [1]; in the assay on E. coli (Gram-negative)) were 6.25 µg/mL (≈ 16.5 µM), 100 µg/mL (≈ 264 µM) and 3.12 µg/mL (≈ 8.22 µM), respectively.
Consider `O=C(O)c1cn(C2CC2)c2cc(N3CCNCC3)c(F)cc2c1=O` [Ciprofloxacin, reference compound], for which the minimal inhibitory concentration (MIC) (in assay [1]; in the assay with E. coli (Gram-negative)) was 2 µg/mL (≈ 6.04 µM) each time.
Consider `O=C(COc1ccccc1Cl)NNC(=O)c1ccc(-n2cccc2)cc1` [Compound 3j, N’-(2-(2-chlorophenoxy)acetyl)-4-(1H-pyrrol-1-yl)benzohydrazide], for which the MIC against M. tuberculosis H37Rv came to 12.5 µg/mL (≈ 33.8 µM); in assay [1], 100 µg/mL (≈ 270 µM); with E. coli (Gram-negative) it was 6.25 µg/mL (≈ 16.9 µM).
In the case of `Cc1cc(C)cc(OCC(=O)NNC(=O)c2ccc(-n3cccc3)cc2)c1` [Compound 3h, N’-(2-(3,5-dimethylphenoxy)acetyl)-4-(1H-pyrrol-1-yl) benzohydrazide], the MIC in the assay on M. tuberculosis H37Rv was 3.12 µg/mL (≈ 8.59 µM); in assay [1], 100 µg/mL (≈ 275 µM); with E. coli (Gram-negative), 3.12 µg/mL (≈ 8.59 µM). For the same molecule, the IC50 at MtDHFR stood at 19 µM; in assay [2] it was 219 ± 0.6 µM; in assay [3], 219 ± 0.1 µM. For the same molecule, at MtDHFR, the “MtDHFR inhibition compared with trimethoprim” value was “greater inhibition characteristics than trimethoprim”. Also, the inhibition at 50 µM at InhA was 59%.
As for `O=C(COc1ccccc1)NNC(=O)c1ccc(-n2cccc2)cc1` [Compound 3a, N’-(2-phenoxyacetyl)-4-(1H-pyrrol-1-yl) benzohydrazide], the MIC in the assay on M. tuberculosis H37Rv is 12.5 µg/mL (≈ 37.3 µM); in assay [1], 100 µg/mL (≈ 298 µM); in the assay with E. coli (Gram-negative) it was 6.25 µg/mL (≈ 18.6 µM).
For the molecule `O=C(COc1ccccc1O)NNC(=O)c1ccc(-n2cccc2)cc1` [Compound 3c, N’-(2-(2-hydroxyphenoxy)acetyl)-4-(1H-pyrrol-1-yl)benzohydrazide], the minimal inhibitory concentration (MIC) against M. tuberculosis H37Rv turned out to be 3.12 µg/mL (≈ 8.88 µM); in assay [1], 100 µg/mL (≈ 285 µM); with E. coli (Gram-negative), 3.12 µg/mL (≈ 8.88 µM). The half-inhibitory concentration (IC50) against MtDHFR was found to be 25 µM; in assay [2], 223 ± 0.7 µM; in assay [3], 224 ± 0.6 µM. Moreover, the “MtDHFR inhibition compared with trimethoprim” value at MtDHFR is recorded as “greater inhibition characteristics than trimethoprim”. The inhibition at 50 µM at InhA turned out to be 46%.
